Measurements taken from publication PMC11928584, “H105A peptide eye drops promote photoreceptor survival in murine and human models of retinal degeneration” (Communications Medicine, 2025).
Where a SMILES comes first, the peptide text is derived from it.

Assay: Localization of H105A in retina by anti-H105A immunofluorescence
Assay type: in vivo
Conditions: RhoP23H/+ mice, daily eye drops P14-P19, anti-H105A immunofluorescence
Experimental: To detect the transduced H105A peptide, we used a custom-made monoclonal recombinant Fab antibody raised against H105A (Bio-Rad AbD Serotec GmbH, Puchheim, Germany). The custom-made antibodies were produced by HuCAL® technology with a FLAG-tag for detection. […] Cells were maintained in DMEM 4.5 g/l (Thermo Fisher Scientific, cat. 11960), supplemented with 10% fetal bovine serum (FBS), 100 U/ml penicillin and 100 µg/ml streptomycin (Thermo Fisher Scientific, cat. 15140148) in 5% CO2 and at 37 °C. […] The specificity of the custom antibody to the H105A peptide was assessed by pre-incubation with 400 µM H105A peptide at 25 °C for 1 h before using it for immunodetection. […]
Daily eye-drop-delivered H105A between P14 and P19 penetrated the retina, reached the photoreceptors, and w a s detected throughout the retina, mostly in the IS/OS ( c). […]
(g-i) Negative controls for immunostaining. No staining was detected in untreated Rho P23H/+ retinas at P 19 (g), in sections where the antibody was pre-incubated with 400 µM H105A peptide for one hour (Panel h), or in sections without the primary antibody (i). […]

With `CC[C@H](C)[C@H](NC(=O)[C@H](CC(C)C)NC(=O)[C@H](CC(=O)O)NC(=O)[C@H](Cc1ccc(O)cc1)NC(=O)[C@H](Cc1ccc(O)cc1)NC(=O)[C@H](CC(C)C)NC(=O)[C@H](C)NC(=O)[C@H](CCCNC(=N)N)NC(=O)[C@H](C)NC(=O)[C@@H](NC(=O)[C@@H](NC(=O)[C@H](CO)NC(=O)[C@H](CCC(=O)O)NC(=O)[C@@H](NC(=O)[C@H](CCCNC(=N)N)NC(=O)[C@@H](N)CCC(N)=O)[C@@H](C)O)[C@@H](C)CC)[C@@H](C)CC)C(=O)N[C@@H](CO)C(=O)O` [H105A] (H-QRTESIIARALYYDLIS-OH) the “localization of H105A in retina” value was “reaching the photoreceptors”.
